Test results: patent US12466843B2, “Gadolinium-based compound, method for producing same, and MRI contrast agent containing same” (KYUNGPOOK NATIONAL UNIVERSITY INDUSTRY-ACADEMIC COOPERATION …, priority 2019, dated 2025)

Biological target: T1, VGLUT1 (Rattus norvegicus, UniProt Q62634)
T1 construct: only the hippocampus and the cerebral cortex were selected and isolated; endogenous in cells; host or cells: primary neurons from hippocampus and cerebral cortex of Sprague Dawley rat fetuses
T1 sequence (Q62634 1-560): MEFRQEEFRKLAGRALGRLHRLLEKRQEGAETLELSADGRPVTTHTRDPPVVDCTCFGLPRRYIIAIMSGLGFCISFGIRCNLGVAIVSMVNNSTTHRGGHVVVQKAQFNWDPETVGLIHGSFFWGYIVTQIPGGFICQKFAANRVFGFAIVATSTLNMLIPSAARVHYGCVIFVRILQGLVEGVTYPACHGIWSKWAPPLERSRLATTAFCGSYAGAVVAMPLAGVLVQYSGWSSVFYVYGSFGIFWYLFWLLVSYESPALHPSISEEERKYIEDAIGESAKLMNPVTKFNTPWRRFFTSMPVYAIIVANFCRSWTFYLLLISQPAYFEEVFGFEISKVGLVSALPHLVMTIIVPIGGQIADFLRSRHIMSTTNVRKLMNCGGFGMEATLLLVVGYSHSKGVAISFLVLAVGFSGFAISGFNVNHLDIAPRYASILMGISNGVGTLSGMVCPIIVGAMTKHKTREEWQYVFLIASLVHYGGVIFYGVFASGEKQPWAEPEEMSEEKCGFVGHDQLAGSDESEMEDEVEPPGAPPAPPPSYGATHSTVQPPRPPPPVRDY
Experiment: In vitro binding test via primary culture: MR phantom study
Format: cell-based, Sprague Dawley rats
Details: primary rat brain neurons, 0, 50, 100, 200, 400 μM, 24 hours, washed, 3T MRI; FIG. 6A/6B
Protocol: 2) In Vitro Binding Test Via Primary Culture 2)-(1). Experimental Method {circumflex over (1)} Primary Culture of Rat Brain Neurons
Sprague Dawley rats at […] of pregnancy were purchased from Daehan Biolink. After stabilizing the pregnant […], respiratory anesthesia was performed using isoflurane, and the fetus was separated from the mother. The fetal brain was separated therefrom, the membrane was removed therefrom, and only the hippocampus and the cerebral cortex were selected and isolated, cut into small pieces, put in HBSS buffer and washed 4 times (centrifugation 1000 rpm, 3 minutes). After the last washing, HBSS was removed, and HBSS buffer containing trypsin was added thereto (cell volume: trypsin HBSS=1:1) and reaction occurred in a constant temperature water bath (37° C.) for 5 minutes. HBSS buffer containing 10% FBS was added thereto ((cell volume+trypsin HBSS): 10% FBS HBSS=1:1) to stop the enzyme reaction of trypsin, and the resulting product passed through 4 layers of lens paper and thus was formed into single cells. The cells were washed 4 times via centrifugation with HBSS buffer, and only the cells separated into the single cells were obtained. […]
The obtained cells were suspended in neurobasal media containing 1×N2 supplement, 1×B27, 4 mM L-glutamine, and 1% antibiotics at 7×10^6 cells per E-tube. […] MRI intensity was analyzed using ImageJ program.

## O=C([O-])CN1CCN(CC(=O)[O-])CCN([C@H](CO)[C@H](O)CO)CCN(CC(=O)[O-])CC1.[Gd+3] (racemic) [Gadovist]
  phantom signal intensity (brightness) based on Gd concentration: little difference in brightness based on the Gd concentration
